# Results taken from paper PMC4738305, “Metabolism and Disposition of Aditoprim in Swine, Broilers, Carp and Rats” (Scientific Reports, 2016).
# Read-outs that look alike come from different tables or passages of the source.
# Columns and labels:
# [1] = Concentration and elimination of ADP and its metabolites in liver, kidney, muscle, fat/skin after oral ^3H-ADP for 7 d; type: in vivo, rats; conditions: for half-life: po; for concentration at 0.25 d / concentration at 1 d / concentration at 3 d / concentration at 7 d: oral
# Method: (§1) A total of 36 animals from each species (swine n = 24) were randomly assigned to six equal treatment groups and administered a single daily dose of ^3 H-ADP at 5 mg/kg b. w. (0.1 Ci/g) through oral gavage for 7 consecutive days. All the animals were housed on the basis of their group in the cages or aquaria throughout the whole study period. A group of animals was slaughtered through exsanguination under diethyl ether inhalation of anesthesia in the period of 6 h, 1, 3, 7, 14, and 21 d after the administration. The blood samples were immediately collected into the heparinized tubes and was centrifuged at 1920 × g at 4 °C for 10 min to obtain the plasma. The tissues from the heart, liver, spleen, lung, kidney, craw (broilers), stomach, intestine, fat, skin, muscle, thymus, pancreas, bile, bladder, hair (scale for carp), genital gland, adrenal glands, swim bladder (carp), brain, lymph, and bursa (broilers) were carefully excised and collected. The tissues were thoroughly rinsed with the deionized water to remove the residuary blood, blotted to dryness, and finally to perform the homogenization. In order to avoid cross-contamination the dissecting instruments were washed during the tissue procurements. The blank tissues were collected in order to provide control matrices. The total radioactivity levels in each sample were determined through LSC. The samples extracted from the plasma, bile, and tissues of the liver, kidney, muscle, and fat/skin were analyzed through LC/MS-IT-TOF and v. ARC radiometric detection for metabolite profiling. The blank samples were used as control to determine the background radioactivity or the endogenous nondrug-related ions observed within respective matrices or their extracts.
# (§2) The feces and tissues (2 g) were diluted with a mixture of methanol and chloroform (1:3, v:v; 2 mL/g homogenate). This procedure was carried out in a fume hood for the safety aspects. The pH value was adjusted to 9.0 with NH4OH. The mixture was vortexed and sonicated for 5 min and 10 min, respectively, and finally the samples were centrifuged at 7690 × g for 10 min. The supernatant was aspirated and then transferred into a new centrifuge tube. The obtained pellet was again subjected to the same process of vortex, ultrasonication, extraction, and centrifugation. The combined supernatant was concentrated under a stream of nitrogen in a water bath at 40 °C. The residue was reconstituted with 0.3 mL of methanol–water (1:9, v:v) before the injection into the LC-v. ARC/MS-IT-TOF system for analysis.
# (§3) ADP and its metabolites in the prepared samples were determined with a v. ARC radiometric detector and a hybrid IT/TOF mass spectrometer connected to the HPLC system (Shimadzu Corp., Kyoto, Japan). The LC system was equipped with a solvent delivery pump (LC-20AD), an auto-sampler (SIL-20AC), a degasser (DGU-20 A 3), a photodiode array detector (SPD-M20A), a communication base module (CBM-20 A), and a column oven (CTO-20AC). The chromatographic separation was achieved by using an Agilent extend-C18 column (2.1 mm × 150 mm, 5 μm) with a gradient mobile phase of A (0.01% ammonia and 5 mM ammonium acetate in water) and B (methanol) at a flow rate of 0.2 mL/min. The column temperature was maintained at 35 °C. Various HPLC methods were performed because of the large number of different metabolites to be analyzed. For the porcine sample, method 1 started at 5% B and increased to 20% B over 35 min, then to 55% B by 60 min, followed by re-equilibration for another 10 min. For the remaining samples, method 2 started at 10% B and increased to 60% B over 30 min, subsequently was maintained at 60% B for an additional 10 min, and then changed to 90% B over 2 min and maintained for 2 min. Afterwards, a re-equilibration step (decreased to 10% B over 1 min and maintained at 10% B for additional 9 min) was followed. For each matrix, more than 98% of the radioactivity injected into the column was eluted during the running time of the gradient program. […]
# [2] = as above; type: in vivo, carp; conditions: for concentration at 0.25 d / concentration at 1 d / concentration at 3 d / concentration at 7 d: carp, oral; for half-life: po
# Method: as §1, §2, §3
structure (smiles),measurement,setting,value
"CNc1c(OC)cc(Cc2cnc(N)nc2N)cc1OC [A1, N-monodesmethyl-ADP]",half-life,"[1]; rat kidney, after 5 mg/kg b. w. for 7 days, read-out: t1/2 of the individual compound (converted)",50.6 h
same,half-life,"[1]; rat liver, after 5 mg/kg b. w. for 7 days, read-out: t1/2 of the individual compound (converted)",64.6 h
same,concentration at 0.25 d,"[1]; rat, fat, 5 mg/kg b. w.",70 ± 20 ng/g
same,concentration at 0.25 d,"[1]; rat, kidney, 5 mg/kg b.w.",2650 ± 970 ng/g
same,concentration at 1 d,"[1]; rat, kidney, 5 mg/kg b.w.",320 ± 120 ng/g
same,concentration at 3 d,"[1]; rat, kidney, 5 mg/kg b.w.",120 ± 20 ng/g
same,concentration at 7 d,"[1]; rat, kidney, 5 mg/kg b.w.",40 ± 10 ng/g
same,concentration at 0.25 d,"[1]; rat, liver, 5 mg/kg b. w.",1940 ± 580 ng/g
same,concentration at 1 d,"[1]; rat, liver, 5 mg/kg b. w.",390 ± 90 ng/g
same,concentration at 3 d,"[1]; rat, liver, 5 mg/kg b. w.",180 ± 40 ng/g
same,concentration at 7 d,"[1]; rat, liver, 5 mg/kg b. w.",80 ± 10 ng/g
same,concentration at 0.25 d,"[1]; rat, muscle, 5 mg/kg b.w.",250 ± 100 ng/g
same,concentration at 1 d,"[1]; rat, muscle, 5 mg/kg b.w.",140 ± 30 ng/g
same,half-life,"[1]; rat, tissues (liver, kidney, muscle, fat/skin), 5 mg/kg, rats tissues, read-out: t1/2 of the individual compound, range over tissues",50.6 to 64.6 h
same,concentration at 0.25 d,"[2]; kidney, 5 mg/kg b.w.",7990 ± 1650 ng/g
same,concentration at 1 d,"[2]; kidney, 5 mg/kg b.w.",1730 ± 330 ng/g
same,concentration at 3 d,"[2]; kidney, 5 mg/kg b.w.",820 ± 150 ng/g
same,concentration at 7 d,"[2]; kidney, 5 mg/kg b.w.",380 ± 30 ng/g
same,concentration at 0.25 d,"[2]; liver, 5 mg/kg b. w.",1930 ± 250 ng/g
same,concentration at 1 d,"[2]; liver, 5 mg/kg b. w.",770 ± 130 ng/g
same,concentration at 3 d,"[2]; liver, 5 mg/kg b. w.",160 ± 30 ng/g
same,concentration at 7 d,"[2]; liver, 5 mg/kg b. w.",20 ng/g
same,concentration at 0.25 d,"[2]; muscle, 5 mg/kg b.w.",300 ± 80 ng/g
same,concentration at 1 d,"[2]; muscle, 5 mg/kg b.w.",270 ± 70 ng/g
same,concentration at 3 d,"[2]; muscle, 5 mg/kg b.w.",100 ± 20 ng/g
same,concentration at 0.25 d,"[2]; skin, 5 mg/kg b. w.",550 ± 90 ng/g
same,concentration at 1 d,"[2]; skin, 5 mg/kg b. w.",450 ± 130 ng/g
same,concentration at 3 d,"[2]; skin, 5 mg/kg b. w.",140 ± 20 ng/g
same,concentration at 7 d,"[2]; skin, 5 mg/kg b. w.",50 ± 10 ng/g
same,half-life,"[2]; carp kidney, after 5 mg/kg b. w. for 7 days, read-out: t1/2 of the individual compound (converted)",67.4 h
same,half-life,"[2]; carp liver, after 5 mg/kg b. w. for 7 days, read-out: t1/2 of the individual compound (converted)",26.2 h
same,half-life,"[2]; carp muscle, after 5 mg/kg b. w. for 7 days, read-out: t1/2 of the individual compound (converted)",49.2 h
same,half-life,"[2]; carp skin, after 5 mg/kg b. w. for 7 days, read-out: t1/2 of the individual compound (converted)",47.8 h
same,half-life,"[2]; tissues (liver, kidney, muscle, fat/skin), 5 mg/kg, carp tissues, read-out: t1/2 of the individual compound, range over tissues",26.2 to 67.4 h
